Experimental data published in patent publication US20040214785A1, “Surface sanitizing compositions with improved antimicrobial performance” (priority 2003, published 2004).
Values after ≈ are worked out from the molar mass of the structure shown.

How the values were obtained:
S. aureus = conditions: against S. aureus; Johnson et al. 2002; cited from earlier work
bacteria = conditions: MMWR/RR-16; cited from earlier work
[1] = test system: bacterial counts on hands; conditions: Triclosan (0.1%), after a 1-minute hygienic handwash; cited from earlier work
[2] = cited from earlier work
E. coli = conditions: against E. coli; Johnson et al. 2002; cited from earlier work
[3] = topically-applied; cited from earlier work
[4] = test system: methicillin-resistant Staphylococcus aureus (MRSA); test: Bactericidal assay (MBC), subculture of dilutions on TSB agar; type: cell-based; conditions: challenge with 1×10^4 MRSA
Description: S. aureus maintained as a frozen culture with 10% (v/v) glycerol at −80° C. was thawed and then propagated on trypticase soy broth (TSB) or agar plates at room temperature (R.T.); determinations for Most Probable Number (MPN) in given samples were performed at 37° C., using standard assay techniques.
Tested sanitizers comprised commercially available gel products (i.e., “Brand A” and “Brand B”) from two manufacturers; these gels were comprised substantially of ethanol (60-70% w/w). […] Additional prototype liquid preparations (“Brand C1” and “Brand C2”) were substantially comprised of mixtures of alcohol (60-70% ethanol or isopropanol, w/w) combined with triclosan (approximately 0.04% w/w). Finally, triclosan was added to certain of the commercially available products (Brand B) to yield modified products containing triclosan at a level of approximately 0.04% w/w (“Brand B1”).
Killing of bacteria at each dilution (i.e., minimum bactericidal concentration, MBC) was determined by removing 5 μL aliquots and subculturing these on the surface of a TSB agar plate. Plates were incubated overnight at 37° C. and observed for growth. Studies were performed at 30 sec, at 5, 10, and 30 min, and at 1, 2, 4, and 8 hours after adding the challenge bacteria.

Q: For `Oc1cc(Cl)ccc1Oc1ccc(Cl)cc1Cl` [Triclosan, 2,4,4′-trichloro-2′-hydroxy-diphenyl ether], which MBC (S. aureus) is on record?
A: Its MBC is 7.5 µg/mL (≈ 25.9 µM).

Q: What about the minimum bactericidal concentrations (bacteria) of the same compound?
A: Its minimum bactericidal concentrations is 25 to 500 µg/mL.

Q: What about the “reduction of bacterial counts on hands” value [1] of the same compound?
A: Its value is 2.8 log10.

Q: What about the solubility in water [2] of the same compound?
A: Its solubility in water is “substantially insoluble in water”.

Q: What about the MBC (E. coli) of the same compound?
A: Its MBC is 1.3 µg/mL (≈ 4.49 µM).

Q: And the “penetration into human skin” value [3]?
A: The value was “minimal penetration into human skin”.

Q: What about the “dilution at which preparation is still bactericidal” value [4] of the same compound?
A: The value was no more than 10 fold.
